One test concerns NIH-3T3 cells. The test can be described thus: qHTS cell viability (CellTiter-Glo, 72 h; primary screen), control cell line. Type of test: cell-based, mouse. The note with it: for Area under the dose-response curve (AUC) NIH3T3: primary high-throughput screen, viability 72 h, n = 1. In general terms: Quantitative high-throughput screening tests each substance at several concentrations.

For a further test, the system named is UISO cells (VN-MCC). Kind of test: qHTS cell viability (CellTiter-Glo, 72 h; primary and follow-up small molecule screen). It counts as cell-based, human. Particulars: for Area under the dose-response curve (AUC) UISO: primary high-throughput screen, viability 72 h, n = 1.
A further test deals with MKL-2 cells (VP-MCC). The description is as above. It counts as cell-based, human. The note with it: for Area under the dose-response curve (AUC) MKL-2: primary high-throughput screen, viability 72 h, n = 1.
A further test deals with MCC13 cells (VN-MCC). The description is as above. It counts as cell-based, human. Particulars: for Area under the dose-response curve (AUC) MCC13: primary high-throughput screen, viability 72 h, n = 1.
In the next test the test system is MKL-1 cells (VP-MCC). The test is described as above. Type of test: cell-based, human. Particulars: for Area under the dose-response curve (AUC) MKL-1: primary high-throughput screen, viability 72 h, n = 1.
The subject of the next test is HEK293T cells. Kind of test: qHTS cell viability (CellTiter-Glo, 72 h; primary screen), control cell line. It counts as cell-based, human. Particulars: for Area under the dose-response curve (AUC) HEK293T: primary high-throughput screen, viability 72 h, n = 1.
In a further test the test system is WAGA cells (VP-MCC). Kind of test: qHTS cell viability (CellTiter-Glo, 72 h; primary and follow-up small molecule screen). Particulars: for Area under the dose-response curve (AUC) WAGA: primary high-throughput screen, viability 72 h, n = 1. It counts as cell-based, human.
The next test relates to HACAT cells. Kind of test: qHTS cell viability (CellTiter-Glo, 72 h; primary screen), control cell line. Particulars: for Area under the dose-response curve (AUC) HACAT: primary high-throughput screen, viability 72 h, n = 1. It counts as cell-based, human.
In another test the test system is CRL-7250 cells. Described as above. It counts as cell-based. Particulars: for Area under the dose-response curve (AUC) CRL7250: primary high-throughput screen, viability 72 h, n = 1.
The next test relates to MCC26 cells (VN-MCC). The test can be described thus: qHTS cell viability (CellTiter-Glo, 72 h; primary and follow-up small molecule screen). It counts as cell-based, human. Particulars: for Area under the dose-response curve (AUC) MCC26: primary high-throughput screen, viability 72 h, n = 1.
Test [1] relates to VP-MCC cell lines (WAGA, MKL-1, MKL-2). Kind of test: qHTS cell viability, VP-MCC cell lines as a group (mean AUC, VP.MCC.avg). Type of test: cell-based, human.
Test [2] relates to six MCC cell lines and four control cell lines. The test can be described thus: qHTS cell viability, all 10 cell lines screened. Type of test: cell-based.
Test [3] deals with VN-MCC cell lines (MCC13, MCC26, UISO). Kind of test: qHTS cell viability, VN-MCC cell lines as a group (mean AUC, VN.MCC.avg). It counts as cell-based, human.
The mark [4] stands for this setting: area under the dose-response curve, NIH3T3 control cells, AUC<450 = reduced viability.
The mark [5] stands for this setting: area under the dose-response curve, UISO cells, AUC<450 = reduced viability.
[6] abbreviates: area under the dose-response curve, MKL-2 cells, AUC<450 = reduced viability.
Where [7] appears, read: area under the dose-response curve, MCC13 cells, AUC<450 = reduced viability.
The mark [8] stands for this setting: area under the dose-response curve, MKL-1 cells, AUC<450 = reduced viability.
Setting [9] is: area under the dose-response curve, HEK293T control cells, AUC<450 = reduced viability.
[10] abbreviates: area under the dose-response curve, WAGA cells, AUC<450 = reduced viability.
[11] abbreviates: area under the dose-response curve, HACAT control cells, AUC<450 = reduced viability.
[12] abbreviates: area under the dose-response curve, CRL7250 control cells, AUC<450 = reduced viability.
[13] abbreviates: area under the dose-response curve, MCC26 cells, AUC<450 = reduced viability.

From paper PMC11822212, “High-throughput screening identifies Aurora kinase B as a critical therapeutic target for Merkel cell carcinoma” (Nature Communications, 2025) come the findings set out here.

SMILES strings stand for the structures. Counter-ions that a name gives are not always drawn. Like-named read-outs stand apart in the source and are kept apart here.

With `Cc1ncc(CNC(=O)N(CCCl)N=O)c(N)n1` [Nimustine], the NIH3T3_AUC in the test with NIH-3T3 cells is reported as 486.849. This compound gave a UISO_AUC in the test on UISO cells (VN-MCC) of 443.983. In the test on MKL-2 cells (VP-MCC), this compound came in with an MKL2_AUC of 504.085. In addition, the MCC13_AUC with MCC13 cells (VN-MCC) is reported as 434.577. In the test with MKL-1 cells (VP-MCC), this compound registered an MKL1_AUC of 478.611. In the test with HEK293T cells, this compound showed an HEK293T_AUC of 481.182. In addition, the WAGA_AUC in the test on WAGA cells (VP-MCC) turned out to be 465.895. Moreover, the HACAT_AUC with HACAT cells worked out at 461.645. Further, in the test on CRL-7250 cells, the CRL7250_AUC came out at 491.102. The compound further registered an MCC26_AUC with MCC26 cells (VN-MCC) of 438.698.

In turn, `C[N+]1(CC2COC(c3ccccc3)(C3CCCCC3)O2)CCCCC1` (stereo not shown) [Oxapium iodide] had an NIH3T3_AUC in the test with NIH-3T3 cells (setting [4]) of 474.75. This compound registered a UISO_AUC in the test on UISO cells (VN-MCC) (setting [5]) of 505.529. This compound also displayed an MKL2_AUC in the test with MKL-2 cells (VP-MCC) (setting [6]) of 426.411. In addition, the MCC13_AUC in the test with MCC13 cells (VN-MCC) (setting [7]) is recorded as 501.634. This compound displayed an MKL1_AUC with MKL-1 cells (VP-MCC) (setting [8]) of 436.858. In the test with HEK293T cells (setting [9]), the HEK293T_AUC amounted to 460.835. In the test on WAGA cells (VP-MCC) (setting [10]), this compound showed a WAGA_AUC of 422.785. Further, the HACAT_AUC in the test with HACAT cells (setting [11]) came to 474.271. Besides, in the test on CRL-7250 cells (setting [12]), the CRL7250_AUC is given as 483.841. In addition, the MCC26_AUC in the test on MCC26 cells (VN-MCC) (setting [13]) turned out to be 482.458.

Regarding `C[N+]1(C)[C@@H]2C[C@@H](OC(=O)[C@H](CO)c3ccccc3)C[C@H]1[C@@H]1O[C@@H]12` [Scopolamine methylbromide, reference compound], the “Area under the dose-response curve (AUC) NIH3T3” value in the test with NIH-3T3 cells is reported as 468.1. In addition, the “Area under the dose-response curve (AUC) UISO” value with UISO cells (VN-MCC) stood at 492.6. Also, the “Area under the dose-response curve (AUC) MKL-2” value with MKL-2 cells (VP-MCC) was 496.7. Also, the “Area under the dose-response curve (AUC) MCC13” value with MCC13 cells (VN-MCC) came out at 481.8. Moreover, in the test on MKL-1 cells (VP-MCC), the “Area under the dose-response curve (AUC) MKL-1” value was 484.0. Also, the “Area under the dose-response curve (AUC) HEK293T” value in the test on HEK293T cells was found to be 479.5. The “Area under the dose-response curve (AUC) WAGA” value in the test on WAGA cells (VP-MCC) is listed as 491.2. Also, the “Area under the dose-response curve (AUC) HACAT” value in the test with HACAT cells is reported as 476.9. The “Area under the dose-response curve (AUC) CRL7250” value in the test on CRL-7250 cells was found to be 474.6. In the test on MCC26 cells (VN-MCC), the “Area under the dose-response curve (AUC) MCC26” value is 475.2.

As to `COc1cc2nc(N3CCN(C(=O)C4CCCO4)CC3)nc(N)c2cc1OC` (stereo not shown) [Terazosin hydrochloride], the Control-VP-MCC in test [1] was 51.2361. The same compound returned a Control-MCC in test [2] of 50.8672. The same compound had a Control-VN-MCC in [3] of 50.4982.

On to `CC(C)(C)NCC(O)c1cc(O)cc(O)c1.CC(C)(C)NCC(O)c1cc(O)cc(O)c1.O=S(=O)(O)O` (stereo not shown) [Terbutaline hemisulfate], for which the NIH3T3_AUC in the test on NIH-3T3 cells (setting [4]) is on record as 463.76. Also, the UISO_AUC with UISO cells (VN-MCC) (setting [5]) was found to be 427.113. For the same compound, in the test with MKL-2 cells (VP-MCC) (setting [6]), the MKL2_AUC was 440.746. Further, the MCC13_AUC with MCC13 cells (VN-MCC) (setting [7]) was determined as 446.456. The compound also yielded an MKL1_AUC with MKL-1 cells (VP-MCC) (setting [8]) of 438.666. For the same compound, in the test on HEK293T cells (setting [9]), the HEK293T_AUC stood at 465.552. This compound also showed a WAGA_AUC in the test on WAGA cells (VP-MCC) (setting [10]) of 449.356. Also, the HACAT_AUC with HACAT cells (setting [11]) was 496.73. This compound also displayed a CRL7250_AUC in the test with CRL-7250 cells (setting [12]) of 479.05. The compound also showed an MCC26_AUC in the test on MCC26 cells (VN-MCC) (setting [13]) of 430.481.

As to `CN1CCN(CCCN2c3ccccc3Sc3ccc(C(F)(F)F)cc32)CC1` [Trifluoperazine hydrochloride, reference compound], the “Area under the dose-response curve (AUC) NIH3T3” value in the test with NIH-3T3 cells was 467.6. Moreover, in the test with UISO cells (VN-MCC), the “Area under the dose-response curve (AUC) UISO” value is 500.3. Further, the “Area under the dose-response curve (AUC) MKL-2” value with MKL-2 cells (VP-MCC) is reported as 488.7. For the same compound, the “Area under the dose-response curve (AUC) MCC13” value in the test on MCC13 cells (VN-MCC) is 486.4. Besides, the “Area under the dose-response curve (AUC) MKL-1” value in the test on MKL-1 cells (VP-MCC) was 497.8. The “Area under the dose-response curve (AUC) HEK293T” value in the test with HEK293T cells is 471.8. Moreover, the “Area under the dose-response curve (AUC) WAGA” value in the test with WAGA cells (VP-MCC) was 495.2. Besides, the “Area under the dose-response curve (AUC) HACAT” value with HACAT cells turned out to be 455.5. In addition, the “Area under the dose-response curve (AUC) CRL7250” value with CRL-7250 cells came out at 412.6. Also, the “Area under the dose-response curve (AUC) MCC26” value in the test on MCC26 cells (VN-MCC) is listed as 481.8.

`COc1cc(C(=O)NCc2ccc(OCCN(C)C)cc2)cc(OC)c1OC` [Trimethobenzamide hydrochloride] returned an NIH3T3_AUC in the test on NIH-3T3 cells (setting [4]) of 459.509. For the same compound, in the test with UISO cells (VN-MCC) (setting [5]), the UISO_AUC came out at 426.826. The MKL2_AUC in the test with MKL-2 cells (VP-MCC) (setting [6]) is recorded as 453.926. In the test with MCC13 cells (VN-MCC) (setting [7]), this compound displayed an MCC13_AUC of 447.793. This compound also yielded an MKL1_AUC in the test on MKL-1 cells (VP-MCC) (setting [8]) of 452.093. In addition, in the test with HEK293T cells (setting [9]), the HEK293T_AUC came out at 452.936. In the test on WAGA cells (VP-MCC) (setting [10]), this compound returned a WAGA_AUC of 468.296. In the test on HACAT cells (setting [11]), this compound came in with an HACAT_AUC of 491.547. This compound also came in with a CRL7250_AUC in the test with CRL-7250 cells (setting [12]) of 477.417. In the test with MCC26 cells (VN-MCC) (setting [13]), the MCC26_AUC worked out at 425.084.

As to `O=C(O)/C=C(\CC(=O)O)C(=O)O` [trans-Aconitic acid], in the test with NIH-3T3 cells (setting [4]), the NIH3T3_AUC is recorded as 503.673. Besides, in the test on UISO cells (VN-MCC) (setting [5]), the UISO_AUC is 494.852. In addition, the MKL2_AUC with MKL-2 cells (VP-MCC) (setting [6]) is on record as 378.194. In the test on MCC13 cells (VN-MCC) (setting [7]), the MCC13_AUC worked out at 525.202. For the same compound, the MKL1_AUC in the test on MKL-1 cells (VP-MCC) (setting [8]) stood at 435.147. The compound also returned an HEK293T_AUC in the test on HEK293T cells (setting [9]) of 467.145. Also, the WAGA_AUC with WAGA cells (VP-MCC) (setting [10]) amounted to 441.902. For the same compound, the HACAT_AUC with HACAT cells (setting [11]) is 490.879. The CRL7250_AUC in the test with CRL-7250 cells (setting [12]) worked out at 486.622. In the test with MCC26 cells (VN-MCC) (setting [13]), the MCC26_AUC is recorded as 496.696.
